Test results from patent publication US7612065B2, “Inhibitors of c-JUN N-terminal kinases (JNK)” (priority 2007, dated 2009).
pKi: −log10 of the molar value.

These compounds were tested against T1, JNK3 (Homo sapiens, UniProt P53779) (assay: JNK inhibition assay: spectrophotometric coupled-enzyme assay with activated JNK3). Conditions: activated JNK3 10 nM, 10 μM ATP, 200 μM EGF receptor peptide, 30° C., competitive inhibition model.
T1 construct: One such construct encodes amino acid residues Ser40-Glu402 of JNK3α1 and is preceded by Met and Gly residues; Met-Gly (initiation methionine plus glycine added for the NcoI site); made in house; host or cells: E. coli BL21 (DE3)
Type: biochemical
Description: A BLAST search of the EST database using the published JNK3α1 cDNA as a query identified an EST clone (#632588) that contained the entire coding sequence for human JNK3α1. Polymerase chain reactions (PCR) using pfu polymerase (Strategene) were used to introduce restriction sites into the cDNA for cloning into the pET-15B expression vector at the NcoI and BamHI sites. The protein was expressed in E. coli. […] This truncation corresponds to Ser 2 of JNK1 and JNK2 proteins, and is preceded by a methionine (initiation) and a glycine residue. The glycine residue was added in order to introduce an NcoI site for cloning into the expression vector. In addition, systematic C-terminal truncations were performed by PCR to identify a construct that give rise to diffraction-quality crystals.
5 mg of JNK3 was diluted to 0.5 mg/ml in 50 mM HEPES buffer, pH 7.5, containing 100 mM NaCl, 5 mM DTT, 20 mM MgCl2 and 1 mM ATP. GST-MKK7(DD) was added at a molar ratio of 1:2.5 GST-MKK7:JNK3. After incubation for 30 minutes at 25° C., the reaction mixture was concentrated 5-fold by ultrafiltration in a Centriprep-30 (Amicon, Beverly, Mass.), diluted to 10 ml and an additional 1 mM ATP added. This procedure was repeated three times to remove ADP and replenish ATP. The final addition of ATP was 5 mM and the mixture incubated overnight at 4° C.
The activated JNK3/GST-MKK7(DD) reaction mixture was exchanged into 50 mM HEPES buffer, pH 7.5, containing 5 mM DTT and 5% glycerol (w/v) by dialysis or ultrafiltration. The reaction mixture was adjusted to 1.1 M potassium phosphate, pH 7.5, and purified by hydrophobic interaction chromatography (at 25° C.) using a Rainin Hydropore column. […] Activated JNK3 (i.e. doubly phosphorylated JNK3) was stored at −70° C. at 0.25-1 mg/ml.
Compounds were assayed for the inhibition of JNK3 by a spectrophotometric coupled-enzyme assay. In this assay, a fixed concentration of activated JNK3 (10 nM) was incubated with various concentrations of a potential inhibitor dissolved in DMSO for 10 minutes at 30° C. in a buffer containing 0.1 M HEPES buffer, pH 7.5, containing 10 mM MgCl2, 2.5 mM phosphoenolpyruvate, 200 μM NADH, 150 μg/mL pyruvate kinase, 50 μg/mL lactate dehydrogenase, and 200 μM EGF receptor peptide. […] The reaction was initiated by the addition of 10 μM ATP and the assay plate is inserted into the spectrophotometer's assay plate compartment that was maintained at 30° C. The decrease of absorbance at 340 nm was monitored as a function of time. The rate data as a function of inhibitor concentration was fitted to competitive inhibition kinetic model to determine the Ki.

T1 sequence (P53779 40-402): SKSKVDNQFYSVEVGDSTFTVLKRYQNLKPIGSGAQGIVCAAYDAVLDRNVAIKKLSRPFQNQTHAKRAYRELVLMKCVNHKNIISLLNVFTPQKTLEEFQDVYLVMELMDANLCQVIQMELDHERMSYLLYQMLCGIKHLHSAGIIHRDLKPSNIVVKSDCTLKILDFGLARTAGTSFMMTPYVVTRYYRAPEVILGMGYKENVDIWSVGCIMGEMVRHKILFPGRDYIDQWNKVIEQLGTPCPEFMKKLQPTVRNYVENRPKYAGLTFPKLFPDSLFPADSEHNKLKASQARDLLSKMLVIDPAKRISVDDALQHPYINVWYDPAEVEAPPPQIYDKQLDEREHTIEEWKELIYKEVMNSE

Compound | pKi
O=C1/C(=N\O)c2ccccc2N1Cc1csc(-c2ccc(Cl)cc2)n1 [Compound 71] | ≤ 6.00
O=C(Nc1ccc2c(c1)N(Cc1cc(F)cc3c1OCOC3)C(=O)/C2=N\O)c1ccc(Cl)c(Cl)c1 [Compound 253] | ≤ 6.00
COc1ccccc1CNC(=O)c1ccc2c(c1)N(Cc1cc(F)cc3c1OCOC3)C(=O)/C2=N\O [Compound 231] | ≤ 6.00
O=C1/C(=N\O)c2c(C#Cc3ccccc3)cccc2N1Cc1cc(F)cc2c1OCOC2 [Compound 246] | ≤ 6.00
Cc1ccc2c(c1)/C(=N/O)C(=O)N2Cc1ccc(Cl)cc1 [Compound 14] | ≤ 6.00
Cc1cc(C)c2c(c1)/C(=N/O)C(=O)N2Cc1ccc(S(C)(=O)=O)cc1 [Compound 93] | ≤ 6.00
O=C1/C(=N\O)c2ccccc2N1Cc1ccc(Cl)c(Cl)c1 [Compound 5] | > 6.00
COc1cccc(C(=O)Nc2ccc3c(c2)/C(=N/O)C(=O)N3Cc2cc(F)cc3c2OCOC3)c1 [Compound 122] | ≤ 6.00
O=C1/C(=N\O)c2ccccc2N1Cc1cccc(Cl)c1 [Compound 9] | ≤ 6.00
O=C1/C(=N\O)c2ccc(NO)cc2N1Cc1cc(F)cc2c1OCOC2 [Compound 209] | > 6.00
CC(C)CC(=O)Nc1ccc2c(c1)N(Cc1cc(F)cc3c1OCOC3)C(=O)/C2=N\O [Compound 345] | > 6.00
COc1ccc(CN2C(=O)/C(=N\O)c3cc(Cl)cc(C)c32)cc1 [Compound 97] | ≤ 6.00
CCOC(=O)C(=O)Nc1ccc2c(c1)N(Cc1cc(F)cc3c1OCOC3)C(=O)/C2=N\O [Compound 258] | > 6.00
COc1cccc(OC)c1C(=O)Nc1ccc2c(c1)N(Cc1cc(F)cc3c1OCOC3)C(=O)/C2=N\O [Compound 340] | ≤ 6.00
O=C(NCc1ccc(F)cc1)c1ccc2c(c1)N(Cc1cc(F)cc3c1OCOC3)C(=O)/C2=N\O [Compound 227] | > 6.00
O=C1/C(=N\O)c2ccc(-c3ccccc3)cc2N1Cc1cc(F)cc2c1OCOC2 [Compound 153] | > 6.00
O=C(O)c1ccc(CNc2ccc3c(c2)/C(=N/O)C(=O)N3Cc2cc(F)cc3c2OCOC3)cc1 [Compound 303] | ≤ 6.00
O=C(Nc1ccc2c(c1)N(Cc1cc(F)cc3c1OCOC3)C(=O)/C2=N\O)c1ccc(F)cc1F [Compound 249] | > 6.00
O=C1/C(=N\O)c2ccccc2N1Cc1cccc([N+](=O)[O-])c1 [Compound 62] | > 6.00
COC(=O)c1cccc(CN2C(=O)/C(=N/O)c3ccc(-c4ccsc4)cc32)c1 [Compound 185] | ≤ 6.00
O=C1/C(=N\O)c2c(F)cc(F)cc2N1Cc1cc(F)cc2c1OCOC2 [Compound 286] | > 6.00
O=C1/C(=N\O)c2cc(Br)ccc2N1Cc1ccccc1F [Compound 29] | ≤ 6.00

Compound | pKi
O=C(Cc1ccccc1F)Nc1ccc2c(c1)N(Cc1cc(F)cc3c1OCOC3)C(=O)/C2=N\O [Compound 220] | > 6.00
O=C(Nc1ccc2c(c1)N(Cc1cc(F)cc3c1OCOC3)C(=O)/C2=N\O)c1ccccc1Cl [Compound 342] | > 6.00
O=C1/C(=N\O)c2cc([N+](=O)[O-])ccc2N1Cc1ccc(Cl)cc1 [Compound 12] | ≤ 6.00
COc1cc(CNC(=O)c2ccc3c(c2)N(Cc2cc(F)cc4c2OCOC4)C(=O)/C3=N\O)cc(OC)c1 [Compound 230] | ≤ 6.00
O=C(Nc1ccc2c(c1)N(Cc1cc(F)cc3c1OCOC3)C(=O)/C2=N\O)c1ccccc1F [Compound 341] | > 6.00
O=C(O)c1ccc(-c2ccc3c(c2)N(Cc2cc(F)cc4c2OCOC4)C(=O)/C3=N\O)cc1 [Compound 154] | > 6.00
O=C1/C(=N\O)c2ccc(Br)cc2N1Cc1cc(F)cc2c1OCOC2 [Compound 152] | > 6.00
Cc1ccccc1-c1ccc2c(c1)N(Cc1cc(F)cc3c1OCOC3)C(=O)/C2=N\O [Compound 316] | > 6.00
CC(C)=Cc1cccc2c1/C(=N/O)C(=O)N2Cc1cc(F)cc2c1OCOC2 [Compound 336] | > 6.00
Cc1cc(Cl)cc2c1N(Cc1nc3ccccc3[nH]1)C(=O)/C2=N\O [Compound 111] | ≤ 6.00
O=C(c1ccc(F)cc1)c1ccc2c(c1)/C(=N/O)C(=O)N2Cc1cc(F)cc2c1OCOC2 [Compound 328] | ≤ 6.00
O=C1/C(=N\O)c2cc(-c3cccnc3)ccc2N1Cc1cc(F)cc2c1OCOC2 [Compound 281] | ≤ 6.00
COC(=O)c1ccc2c(c1)N(Cc1cc(C)cc3c1OCOC3)C(=O)/C2=N\O [Compound 215] | > 6.00
O=C1/C(=N\O)c2ccc([N+](=O)[O-])cc2N1Cc1cc(F)cc2c1OCOC2 [Compound 207] | > 6.00
COc1cc(CN2C(=O)/C(=N\O)c3cc(Cl)ccc32)cc(OC)c1 [Compound 74] | > 6.00
Nc1cccc(-c2ccc3c(c2)N(Cc2cc(F)cc4c2OCOC4)C(=O)/C3=N\O)c1 [Compound 327] | > 6.00
COc1ccc(-c2nc(CN3C(=O)/C(=N\O)c4ccccc43)no2)cc1 [Compound 65] | ≤ 6.00
CCNC(=O)c1ccc2c(c1)N(Cc1cc(F)cc3c1OCOC3)C(=O)/C2=N\O [Compound 291] | ≤ 6.00
COC(=O)c1cccc(CN2C(=O)/C(=N/O)c3ccc(-c4cccc(OC)c4)cc32)c1 [Compound 176] | ≤ 6.00
O=C1/C(=N\O)c2c(CCc3ccccc3)cccc2N1Cc1cc(F)cc2c1OCOC2 [Compound 306] | ≤ 6.00
COc1ccc2c(CN3C(=O)/C(=N/O)c4ccc(-c5ccsc5)cc43)cc(=O)oc2c1 [Compound 184] | ≤ 6.00
CC(=O)NCC(=O)NCC(=O)Nc1ccc2c(c1)N(Cc1cc(F)cc3c1OCOC3)C(=O)/C2=N\O [Compound 347] | ≤ 6.00

Compound | pKi
Cc1ccc(CN2C(=O)/C(=N\O)c3cc([N+](=O)[O-])ccc32)cc1 [Compound 33] | ≤ 6.00
O=C1/C(=N\O)c2ccc(-c3ccccc3)cc2N1Cc1ccccc1-c1ccccc1 [Compound 162] | ≤ 6.00
COc1cc(CN2C(=O)/C(=N\O)c3cc(NC(=O)c4cccc(OC)c4)ccc32)cc(OC)c1 [Compound 121] | ≤ 6.00
C[C@H](NC(=O)OCC1c2ccccc2-c2ccccc21)C(=O)Nc1ccc2c(c1)N(Cc1cc(F)cc3c1OCOC3)C(=O)/C2=N\O [Compound 352] | ≤ 6.00
O=C1/C(=N\O)c2c(-c3cc4ccccc4o3)cccc2N1Cc1cc(F)cc2c1OCOC2 [Compound 206] | ≤ 6.00
Cc1ccc2c(c1)/C(=N/O)C(=O)N2Cc1ccc([N+](=O)[O-])cc1 [Compound 39] | ≤ 6.00
O=C(c1ccccc1)c1ccc2c(c1)/C(=N/O)C(=O)N2Cc1cc(F)cc2c1OCOC2 [Compound 302] | ≤ 6.00
Cc1ccccc1CNC(=O)c1ccc2c(c1)N(Cc1cc(F)cc3c1OCOC3)C(=O)/C2=N\O [Compound 233] | ≤ 6.00
O=C1/C(=N\O)c2ccccc2N1Cc1ccccc1F [Compound 21] | ≤ 6.00
O=C1/C(=N\O)c2cc(OC(F)(F)F)ccc2N1Cc1cc(F)cc2c1OCOC2 [Compound 108] | ≤ 6.00
C=CCCCN1C(=O)/C(=N\O)c2cc(Br)ccc21 [Compound 160] | ≤ 6.00
Cc1cccc(CN2C(=O)/C(=N\O)c3cc(Cl)ccc32)c1 [Compound 49] | ≤ 6.00
CC(=O)Nc1cccc(-c2ccc3c(c2)N(Cc2cc(F)cc4c2OCOC4)C(=O)/C3=N\O)c1 [Compound 317] | > 6.00
CC(C)S(=O)(=O)Nc1ccc2c(c1)N(Cc1cc(F)cc3c1OCOC3)C(=O)/C2=N\O [Compound 264] | ≤ 6.00
O=C1/C(=N\O)c2ccc(-c3cc4ccccc4o3)cc2N1Cc1cc(F)cc2c1OCOC2 [Compound 318] | > 6.00
O=C1/C(=N\O)c2ccccc2N1Cc1cc(F)cc2c1OCOC2 [Compound 69] | > 6.00
O=C1/C(=N\O)c2cc(NCc3ccccc3)ccc2N1Cc1cc(F)cc2c1OCOC2 [Compound 300] | ≤ 6.00
O=C(Nc1ccc2c(c1)N(Cc1cc(F)cc3c1OCOC3)C(=O)/C2=N\O)c1ccccc1Br [Compound 343] | > 6.00
O=C1/C(=N\O)c2cc(F)ccc2N1Cc1csc(-c2ccc(Cl)cc2)n1 [Compound 86] | ≤ 6.00
O=C(Nc1cccc(F)c1)c1ccc2c(c1)N(Cc1cc(F)cc3c1OCOC3)C(=O)/C2=N\O [Compound 229] | ≤ 6.00
